According to US20080280879A1, “SUBSTITUTED HETEROCYCLIC DERIVATIVES AND THEIR PHARMACEUTICAL USE AND COMPOSITIONS” (priority 2007, published 2008):
Values after ≈ are worked out from the molar mass of the structure shown.

How the values were obtained:
Type in all cases: cell-based, Staphylococcus aureus
Staph aureus 1095 MRSA = assay: MIC, microtiter broth dilution (CLSI M7-A7), Assay 1, Table 12 column A, no serum; details: Assay 1, no serum; for MIC: Staphylococcus aureus, MRSA
Procedure: (§1) The assays described herein include a panel of bacterial isolates of Staphylococcus aureus. Assay 1 comprises the strains noted in Columns A through E, and Assay 2 comprises the strains noted in Columns F through H. The assays are performed in microtiter trays according to Methods for Dilution Antimicrobial Susceptibility Tests for Bacteria that Grow Aerobically; Approved Standard-7th edition (M7-A7) and interpreted according to the Performance Standards for Antimicrobial Susceptibility Testing; 16th Informational Supplement (M100-S16) published by Clinical Laboratory Standards Institute (CLSI). The antibacterial activity is presented in the form of a minimum inhibitory concentration (MIC) value in μg/ml format. The MIC value represents the lowest concentration of drug measured which prevented macroscopically visible growth under the conditions and specific doses tested. The compounds were initially dissolved in DMSO as 30 mM stocks and diluted accordingly to adjust to a concentration of 10 mg/ml or the compounds were dissolved in DMSO at a concentration of 10 mg/ml. For assessment of activity in the presence of human serum, S. aureus 1146 and S. aureus 1031 were inoculated into Mueller-Hinton Broth with 50% pooled inactivated human serum. In some cases, compounds were tested more than once in a particular assay. Where noted, the MIC value shown in Table 12 represents the geometric mean of the data from multiple runs.
(§2) It should be understood that the data in columns A-H represents MIC data in μg/ml and the notation “<=” means ‘less than or equal to’.

Staph aureus 1146 [1] = assay: MIC, microtiter broth dilution (CLSI M7-A7), Assay 1, Table 12 column B, no serum; details: for MIC, column B: Staph aureus 1146, Assay 1, no serum; for MIC: Staphylococcus aureus, 1146, Staph aureus 1146, Assay 1, no serum
Procedure: as §1, §2

Staph aureus 1146 [2] = assay: MIC in Mueller-Hinton Broth with 50% pooled inactivated human serum, Assay 1, Table 12; details: for MIC, column C: Staph aureus 1146, Assay 1, 50% human serum; for MIC: Staphylococcus aureus, 1146, Staph aureus 1146, Assay 1, 50% human serum, read-out: MIC, column C
Procedure: as §1, §2

Staph aureus 2811 = assay: MIC, microtiter broth dilution (CLSI M7-A7), Assay 1, Table 12 column D, no serum; details: for MIC, column D: Staph aureus 2811, Assay 1, no serum; for MIC: Staphylococcus aureus, 2811, Staph aureus 2811, Assay 1, no serum
Procedure: as §1, §2

Staph aureus 2812 = assay: MIC, microtiter broth dilution (CLSI M7-A7), Assay 1, Table 12 column E, no serum; details: for MIC, column E: Staph aureus 2812, Assay 1, no serum; for MIC: Staphylococcus aureus, 2812, Staph aureus 2812, Assay 1, no serum
Procedure: as §1, §2

Compound | MIC, column A (Staph aureus 1095 MRSA) | MIC, column B (Staph aureus 1146 [1]) | MIC, column C (Staph aureus 1146 [2]) | MIC, column D (Staph aureus 2811) | MIC, column E (Staph aureus 2812) | MIC (Staph aureus 1095 MRSA) | MIC (Staph aureus 1146 [1]) | MIC (Staph aureus 1146 [2]) | MIC (Staph aureus 2811) | MIC (Staph aureus 2812)
3-{[2-(3-chloro-6-methoxyquinolin-4-yl)ethyl]amino}-1-(cis-3-phenylcyclobutyl)pyrrolidine-3-carboxylic acid [Example 113] | 0.125 µg/mL | <=.0625 μg/ml | 16 µg/mL | 0.125 µg/mL | 0.25 µg/mL | – | – | – | – | –
3-{[2-(3-chloro-8-methoxyquinolin-4-yl)ethyl]amino}-1-(trans-3-phenylcyclobutyl)pyrrolidine-3-carboxylic acid [Example 114] | 1 µg/mL | 0.5 µg/mL | >64 µg/mL | 0.5 µg/mL | 0.5 µg/mL | – | – | – | – | –
COc1ccc2ncc(F)c(C(O)CC[C@@H]3CCN(C4CC(c5ccccc5)C4)C[C@@H]3C(=O)O)c2c1 (mixture of isomers) [Example 14, (3R,4R)-4-[3-(3-fluoro-6-methoxyquinolin-4-yl)-3-hydroxypropyl]-1-(3-phenylcyclobutyl)piperidine-3-carboxylic acid] | – | – | – | – | – | ≤ 0.0947 µg/mL | 0.158 µg/mL | ≤ 0.379 µg/mL | ≤ 0.0947 µg/mL | ≤ 0.0947 µg/mL
COc1ccc2nccc(C(O)CC[C@@H]3CCN(C4CC(O)(c5ccccc5)C4)C[C@@H]3C(=O)O)c2c1 (mixture of isomers) [Example 95, (3R,4R)-4-[3-hydroxy-3-(6-methoxyquinolin-4-yl)propyl]-1-(3-hydroxy-3-phenylcyclobutyl)piperidine-3-carboxcylic acid] | >64 µg/mL | 16 µg/mL | >64 µg/mL | >64 µg/mL | >64 µg/mL | – | – | – | – | –
COc1ccc2nccc(C(O)CC[C@@H]3CCN(C4CC(O)(c5ccccc5)C4)C[C@@H]3C(=O)O)c2c1 (mixture of isomers) [Example 96, (3R,4R)-4-[3-hydroxy-3-(6-methoxyquinolin-4-yl)propyl]-1-(3-hydroxy-3-phenylcyclobutyl)piperidine-3-carboxcylic acid] | >64 µg/mL | 8 µg/mL | >64 µg/mL | >64 µg/mL | >64 µg/mL | – | – | – | – | –
COc1ccc2nccc(C(O)CC[C@@H]3CCN(CC4CC(c5ccccc5)C4)C[C@@H]3C(=O)O)c2c1 (mixture of isomers) [Example 177, (3R,4R)-4-[3-hydroxy-3-(6-methoxyquinolin-4-yl)propyl]-1-[(3-phenylcyclobutyl)methyl]piperidine-3-carboxylic acid] | – | – | – | – | – | 8 µg/mL | 4 µg/mL | 32 µg/mL | 4 µg/mL | 8 µg/mL
O=C(O)[C@H]1CN(C2CC(c3cc(F)ccc3F)C2)CC[C@H]1CCC(O)c1c(F)cnc2ccc(O)nc12 (mixture of isomers) [Example 206, (3R,4R)-1-[3-(2,5-difluorophenyl)cyclobutyl]-4-[3-(3-fluoro-6-hydroxy-1,5-naphthyridin-4-yl)-3-hydroxypropyl]piperidine-3-carboxylic acid] | – | – | – | – | – | 4 µg/mL | 2 µg/mL | 16 µg/mL | 2 µg/mL | 4 µg/mL
COc1ccc2nccc(C(O)CCC3CCN(C[C@@H]4C[C@H]4c4ccccc4)CC3C(=O)O)c2c1 (relative stereo) [Example 25, 4-[3-hydroxy-3-(6-methoxyquinolin-4-yl)propyl]-1-{[(trans)-2-phenylcyclopropyl]methyl}piperidine-3-carboxylic acid] | – | – | – | – | – | 2 µg/mL (≈ 4.21 µM) | 2 µg/mL (≈ 4.21 µM) | 4 µg/mL (≈ 8.43 µM) | 1 µg/mL (≈ 2.11 µM) | 1 µg/mL (≈ 2.11 µM)
COc1ccc2nccc(C(O)CCC3CCN(C[C@@H]4C[C@H]4c4cc(F)ccc4F)CC3C(=O)O)c2c1 (relative stereo) [Example 26, 1-{[(trans)-2-(2,5-difluorophenyl)cyclopropyl]methyl}-4-[3-hydroxy-3-(6-methoxyquinolin-4-yl)propyl] piperidine-3-carboxylic acid] | – | – | – | – | – | 1 µg/mL (≈ 1.96 µM) | 0.25 µg/mL (≈ 0.49 µM) | 4 µg/mL (≈ 7.83 µM) | 0.25 µg/mL (≈ 0.49 µM) | 0.25 µg/mL (≈ 0.49 µM)
COc1ccc2ncc(F)c(C(O)CC[C@@H]3CCN(C4CC(c5ccccc5)C4)C[C@@H]3C(=O)O)c2c1 (single isomer, unassigned) [Example 15] | – | 0.0156 µg/mL (≈ 0.0317 µM) | 0.25 µg/mL (≈ 0.508 µM) | – | 0.03125 µg/mL (≈ 0.0634 µM) | 0.0884 µg/mL (≈ 0.179 µM) | – | – | 0.0625 µg/mL (≈ 0.127 µM) | –
COc1ccc2ncc(F)c(C(O)CC[C@@H]3CCN(C4CC(c5ccccc5)C4)C[C@@H]3C(=O)O)c2c1 (single isomer, unassigned) [Example 16] | 0.125 µg/mL (≈ 0.254 µM) | <=.0884 μg/ml | 1 µg/mL (≈ 2.03 µM) | 0.125 µg/mL (≈ 0.254 µM) | 0.125 µg/mL (≈ 0.254 µM) | – | – | – | – | –
COc1ccc2ncc(F)c(C(O)CC[C@@H]3CCN(C4CC(c5c(F)cccc5F)C4)C[C@@H]3C(=O)O)c2c1 (single isomer, unassigned) [Example 18] | – | – | – | – | – | ≤ 0.0625 µg/mL | ≤ 0.0625 µg/mL | 0.25 µg/mL (≈ 0.473 µM) | ≤ 0.0625 µg/mL | ≤ 0.0625 µg/mL
COc1ccc2ncc(F)c(C(O)CC[C@@H]3CCN(C4CC(c5c(F)cccc5F)C4)C[C@@H]3C(=O)O)c2c1 (single isomer, unassigned) [Example 19] | <=.0625 μg/ml | <=.0625 μg/ml | 0.5 µg/mL (≈ 0.946 µM) | <=.0625 μg/ml | <=.0625 μg/ml | – | – | – | – | –
COc1ccc2nccc(C(O)CC[C@@H]3CCN(C4CC(c5c(F)cccc5F)C4)C[C@@H]3C(=O)O)c2c1 (single isomer, unassigned) [Example 27] | – | – | – | – | – | ≤ 0.0625 µg/mL | ≤ 0.125 µg/mL | 0.353 µg/mL (≈ 0.692 µM) | ≤ 0.0625 µg/mL | ≤ 0.0625 µg/mL
COc1ccc2ncc(F)c(C(O)CC[C@@H]3CCN(C4CC(c5cc(F)ccc5F)C4)C[C@@H]3C(=O)O)c2c1 (single isomer, unassigned) [Example 59] | – | – | <=.0625 μg/ml | – | – | ≤ 0.0625 µg/mL | ≤ 0.0625 µg/mL | – | ≤ 0.0625 µg/mL | ≤ 0.0625 µg/mL
COc1ccc2ncc(F)c(C(O)CC[C@@H]3CCN(C4CC(c5cc(F)ccc5F)C4)C[C@@H]3C(=O)O)c2c1 (single isomer, unassigned) [Example 60] | 0.125 µg/mL (≈ 0.236 µM) | <=.0625 μg/ml | 4 µg/mL (≈ 7.57 µM) | <=.0625 μg/ml | <=.0625 μg/ml | – | – | – | – | –
COc1ccc2ncc(Cl)c([C@@H](O)CNC3(C(=O)O)CCCN(C4CC(c5ccccc5)C4)CC3)c2c1 (single isomer, unassigned) [Example 147] | – | – | – | – | – | 8 µg/mL (≈ 15.3 µM) | 1 µg/mL (≈ 1.91 µM) | 4 µg/mL (≈ 7.63 µM) | 1 µg/mL (≈ 1.91 µM) | 1 µg/mL (≈ 1.91 µM)
COc1ccc2ncc(Cl)c([C@@H](O)CNC3(C(=O)O)CCCN(C4CC(c5ccccc5)C4)CC3)c2c1 (single isomer, unassigned) [Example 148] | 4 µg/mL (≈ 7.63 µM) | 1 µg/mL (≈ 1.91 µM) | 4 µg/mL (≈ 7.63 µM) | 1 µg/mL (≈ 1.91 µM) | 1 µg/mL (≈ 1.91 µM) | – | – | – | – | –
COc1ccc2ncc(F)c([C@@H](O)CNC3(C(=O)O)CCCN(C4CC(c5ccccc5)C4)CC3)c2c1 (single isomer, unassigned) [Example 149] | – | – | – | – | – | 8 µg/mL (≈ 15.8 µM) | 2 µg/mL (≈ 3.94 µM) | 4 µg/mL (≈ 7.88 µM) | 2 µg/mL (≈ 3.94 µM) | 2 µg/mL (≈ 3.94 µM)
COc1ccc2nccc(C(O)CC[C@@H]3CCN(C4CC(c5cccc(F)c5F)C4)C[C@@H]3C(=O)O)c2c1 (stereo partly drawn) [Example 58, (3R,4R)-1-[3-(2,3-difluorophenyl)cyclobutyl]-4-[3-hydroxy-3-(6-methoxyquinolin-4-yl)propyl] piperidine-3-carboxylic acid] | – | – | 2 µg/mL (≈ 3.92 µM) | – | – | – | – | – | – | –
COc1ccc2nccc([C@@H](O)CC[C@@H]3CCN(C4CC(c5ccc(-c6ccccc6)cc5)C4)C[C@@H]3C(=O)O)c2c1 (stereo partly drawn) [Example 70, (3R,4R)-1-(3-biphenyl-4-ylcyclobutyl)-4-[(3S)-3-hydroxy-3-(6-methoxyquinolin-4-yl)propyl] piperidine-3-carboxylic acid] | >64 µg/mL | – | – | – | – | – | – | – | – | –
COc1ccc2ncc(F)c(C(O)CC[C@@H]3CCN(C4CC(Sc5cc(F)ccc5F)C4)C[C@@H]3C(=O)O)c2c1 (stereo partly drawn) [Example 229, (3R,4R)-1-[3-(2,5-Difluoro-phenylsulfanyl)-cyclobutyl]-4-[(S)-3-(3-fluoro-6-methoxy-quinolin-4-yl)-3-hydroxy-propyl]-piperidine-3-carboxylic acid] | – | – | – | – | – | – | – | 32 µg/mL (≈ 57.1 µM) | – | –
